In brackets after ≈: the same amount, converted by molar mass.

The conditions of the data set: buffer; pH 7.4; 200.0 µM.
Regarding `COc1ccccc1CCNC1CCCCCC1`, the kinetic solubility (commonly solubility judged after dilution from a stock solution rather than from solid) is over 37.1 µg/mL.
For `CCNc1nc(-c2ccc(OC(F)F)cc2)c(C)s1`, the kinetic solubility was 20.9 µg/mL (≈ 73.5 µM).
In the case of `CC(NC(=O)c1ccccc1)C(=O)N/N=C/c1ccccc1` (centres undefined), the kinetic solubility was over 44.3 µg/mL.
With `CCC(=O)OCC(=O)Nc1ccc2c(c1)OCO2`, the solubility (kinetic) is over 37.7 µg/mL.
The value for `O=C(CCNS(=O)(=O)c1ccccc1)N1CCOCC1` was over 44.8 µg/mL.
The same measure for `O=C(CNC(=O)C1CCCCC1)NC1CCCCC1`: over 40 µg/mL.
In turn, `Cc1cc(C)cc(OCC(=O)Nc2nc(-c3ccccn3)cs2)c1` returned a solubility (kinetic) of 1.2 µg/mL (≈ 3.54 µM).
Turning to `Cc1ccc(S(C)(=O)=NS(=O)(=O)c2cccc3nsnc23)cc1` (centres undefined), the kinetic solubility was over 55.1 µg/mL.
The value for `OCC1(Cc2ccccc2F)CCCN(CCc2ccccc2)C1` (centres undefined) was 40.7 µg/mL (≈ 124 µM).
In turn, `CC1(C)Cc2nc3sc(C(=O)NCCCO)c(N)c3cc2CO1` registered a solubility (kinetic) of over 50.3 µg/mL.
Consider `NC(=O)C1CCN(C(=O)c2ccc(Oc3cc(Cl)cc(Cl)c3)o2)CC1`, for which the solubility (kinetic) turned out to be 55.4 µg/mL (≈ 145 µM).
As for `COc1ccc(NC(=O)C2CCOC2=O)cc1` (centres undefined), the kinetic solubility was over 35.3 µg/mL.
The molecule `CN(C(=O)Nc1ccccc1)C1CCCCC1` yielded a kinetic solubility of 8.6 µg/mL (≈ 37 µM).
Consider `CN(CC(=O)NCc1ccc(F)cc1)Cc1cccc(Cl)c1`, for which the kinetic solubility worked out at 38.7 µg/mL (≈ 121 µM).
The same measure for `O=C(COc1ncnc2ccccc12)NCCc1ccc(F)cc1`: 41.9 µg/mL (≈ 129 µM); for `N#CCSc1nc2ccccc2o1`: 14.3 µg/mL (≈ 75.2 µM).
`COc1ccc(C(=O)OCC(=O)NCc2cccs2)c(OC)c1OC`: the kinetic solubility was over 54.8 µg/mL.
`O=C(NC1CCCc2ccccc21)c1ccc([N+](=O)[O-])cc1` (centres undefined) yielded a solubility (kinetic) of 3.2 µg/mL (≈ 10.8 µM).
The molecule `OC1/C(=C/c2ccc(C(F)(F)F)cc2)N2CCC1CC2` (centres undefined) showed a solubility (kinetic) of 41.5 µg/mL (≈ 146 µM).
Consider `Cc1ccc(S(=O)(=O)Nc2nc(C)c(C(=O)NN)s2)cc1`, for which the solubility (kinetic) was over 49 µg/mL.
In turn, `O=C(NCC1CC1)c1ccccc1Cl` registered a solubility (kinetic) of over 31.5 µg/mL.
The same measure for `CC(Sc1nc2ncc(Cl)cc2[nH]1)C(=O)Nc1ccc(C(N)=O)cc1` (centres undefined): 9.3 µg/mL (≈ 24.7 µM).
Consider `N#Cc1ccccc1OCC(=O)OCC(=O)c1c[nH]c2ccccc12`, for which the kinetic solubility was 6.4 µg/mL (≈ 19.1 µM).
In turn, `C=CCn1c(SCC(N)=O)nc2sc3c(c2c1=O)CCC3` displayed a kinetic solubility of 38.6 µg/mL (≈ 120 µM).
`Nc1ncnc(Oc2ccccc2F)c1[N+](=O)[O-]` returned a kinetic solubility of 34.3 µg/mL (≈ 137 µM).
Consider `CC(C)S(=O)(=O)C/C(N)=N/OC(=O)c1cc(Cl)cc(Cl)c1`, for which the kinetic solubility turned out to be 34.5 µg/mL (≈ 97.7 µM).
Molecule `Cc1cc2cc(CNC(=O)C(C)Oc3ccccc3)ccc2n1C` (centres undefined) had a solubility (kinetic) of 11.4 µg/mL (≈ 35.4 µM).
The same measure for `O=C1CCCN1CCC1CCCCN1Cc1nc(-c2cnccn2)no1` (centres undefined): over 53.5 µg/mL; for `O=C(CC1CCC1)NC(c1ccccc1)c1ccccc1`: 6.5 µg/mL (≈ 23.3 µM).
The molecule `CCOC(=O)CC(c1ccc(N)cc1)n1c(C)ccc1C` (centres undefined) showed a solubility (kinetic) of 20.8 µg/mL (≈ 72.6 µM).
The same measure for `CC(C)(C)NC(=O)c1ccc2c(c1)C(=O)N(Cc1ccco1)C2=O`: 46 µg/mL (≈ 141 µM); for `O=C(COc1ccc2ccccc2c1)Nc1nccs1`: 3.9 µg/mL (≈ 13.7 µM); for `COC(=O)C1CCN(C(=O)CN2C(=O)NC(CC(C)C)C2=O)CC1` (centres undefined): over 50.9 µg/mL.
The value for `C/C(=C\C(=O)c1sccc1Cl)N(C)C` was over 34.5 µg/mL; that for `CCOC(=O)C1CCN(CCC(=O)Nc2cc(C)ccc2C)CC1` was over 49.9 µg/mL; that for `CCOC(=O)CC(NC(=O)c1cccs1)c1ccc(C)cc1` (centres undefined) was over 47.6 µg/mL.
Turning to `Cc1cccc(NC(=S)NC2CCSc3ccccc32)c1` (centres undefined), the kinetic solubility is under 0.3 µg/mL.
Regarding `COc1ccc(C(CNC(=O)CN(C)S(=O)(=O)c2ccc(C)cc2)N2CCCC2)cc1` (centres undefined), the kinetic solubility was over 66.8 µg/mL.
The value for `Cc1csc(Nc2nc(N)c(C(=O)Nc3cc(Cl)ccc3F)o2)n1` was 3.1 µg/mL (≈ 8.43 µM); that for `Cc1nc(-c2ccc(C(=O)Nc3cccc(F)c3)cc2)cs1` was under 0.3 µg/mL.
In the case of `CCCCn1cnc2c(oc3nc4c(cc32)CCCC4)c1=O`, the solubility (kinetic) amounted to 20.6 µg/mL (≈ 69.3 µM).
The molecule `CC(CC(=O)NCCc1ccc(S(N)(=O)=O)cc1)c1ccccc1` (centres undefined) came in with a kinetic solubility of over 52 µg/mL.
Consider `COc1ccc(NC(=O)CCCOc2ccc(Cl)c(C)c2)cc1S(=O)(=O)N1CCOCC1`, for which the kinetic solubility was found to be 15.3 µg/mL (≈ 31.7 µM).
For the molecule `CN1C2CCC1CC(NC(=O)c1cc(Cl)cc3[nH]cnc13)C2` (centres undefined), the kinetic solubility was 40.7 µg/mL (≈ 128 µM).
`CCN(CC)CC#CC(OC)(c1ccccc1)c1ccccc1.Cl` gave a kinetic solubility of 29.5 µg/mL.
Molecule `COc1cc2c(cc1OC)CN(C(=O)c1cccc([N+](=O)[O-])c1)CC2` returned a solubility (kinetic) of 36 µg/mL (≈ 105 µM).
In turn, `CCOC(=O)N1CCC(NS(=O)(=O)c2ccc(C)c(Cl)c2)CC1` showed a kinetic solubility of over 54.1 µg/mL.
Molecule `CCc1ccc(CCOc2ccc(CC3SC(=O)NC3=O)cc2)nc1.Cl` (centres undefined) yielded a kinetic solubility of 1.8 µg/mL.
The molecule `C=CCn1cccc(C(=O)Nc2ccc(C)cc2)c1=O` displayed a kinetic solubility of 39.7 µg/mL (≈ 148 µM).
The value for `Cc1ccc(CNC(=O)C2CC=CCC2C(=O)O)cc1` (centres undefined) was over 41 µg/mL; that for `Cc1cc(C)cc(N(C(C)C(=O)N2CCCC2)S(C)(=O)=O)c1` (centres undefined) was over 48.7 µg/mL; that for `COc1ccc(Cc2n[nH]c(=S)n2N)cc1OC` was over 39.9 µg/mL.
For `O=C(O)CC(c1ccccc1F)N1Cc2ccccc2C1=O` (centres undefined), the kinetic solubility came to 43.7 µg/mL (≈ 146 µM).
`COc1ccc(NC(=O)CSCc2ccc([N+](=O)[O-])cc2)cc1OC` had a kinetic solubility of 50.1 µg/mL (≈ 138 µM).
Consider `NC(=O)c1cccc(CS(=O)(=O)c2ccc(Cl)cc2)c1`, for which the kinetic solubility came out at 16.4 µg/mL (≈ 52.9 µM).
The value for `Cn1c(=O)c(C(N)=S)cn(-c2ccccc2)c1=O` was 25.5 µg/mL (≈ 97.6 µM); that for `Cc1cnc(NC(=O)C2CC(=O)N(c3ccc4c(c3)OCCO4)C2)s1` (centres undefined) was 20.2 µg/mL (≈ 56.2 µM); that for `CC(C)COP(=O)(OCC(C)C)C(O)c1ccc(N(C)C)cc1` (centres undefined) was over 51.5 µg/mL.
The same measure for `Cc1ccc(S(=O)(=O)NCC(=O)Nc2cccc([N+](=O)[O-])c2)cc1`: 22.7 µg/mL (≈ 65 µM).
On to `COc1ccccc1CCNC(=O)c1c(C)nn(CC(C)C)c1Cl`, for which the kinetic solubility is over 52.5 µg/mL.
`Cc1ccc(NC(=O)c2cccnc2)cc1S(=O)(=O)N(C)C` registered a solubility (kinetic) of over 47.9 µg/mL.
`O=C(O)c1ncsc1-c1ccccc1` registered a kinetic solubility of 29.1 µg/mL (≈ 142 µM).
For the molecule `O=C(Oc1cc(Cl)cc(Cl)c1)c1cnc2n(c1=O)CCS2`, the kinetic solubility amounted to 43.9 µg/mL (≈ 128 µM).
`CC1CCCC(NC(=O)CSc2ncnc3ccccc23)C1C` (centres undefined) gave a kinetic solubility of 24.1 µg/mL (≈ 73.1 µM).
In turn, `Cc1[nH]c2ccc(C(=O)NCCN3CCOCC3)cc2c1C` showed a solubility (kinetic) of over 45.2 µg/mL.
Take `CC(=O)c1c(-c2ccc(Cl)cc2)c2ccccc2[nH]c1=O`: the kinetic solubility came to 0.9 µg/mL (≈ 3.02 µM).
In the case of `O=C(c1ccc(Cl)cc1Cl)N1CCc2ccccc21`, the solubility (kinetic) came to 13.9 µg/mL (≈ 47.6 µM).
`Nc1c(N(Cc2ccccc2)C(=O)COc2ccc(F)cc2Cl)c(=O)[nH]c(=O)n1Cc1ccccc1` returned a kinetic solubility of 9.4 µg/mL (≈ 18.5 µM).
The same measure for `O=C(NCCCc1ccccc1)c1ccc(F)cc1`: over 38.6 µg/mL.
On to `Cc1ccc(OCC(=O)NC(C)c2ccccc2)cc1` (centres undefined), for which the solubility (kinetic) is over 40.4 µg/mL.
`CCOC(=O)c1cccc(NC(=S)NCc2ccc(C)cc2)c1`: the kinetic solubility came out at 0.4 µg/mL (≈ 1.22 µM).
In the case of `CCCCC(=O)NNC(=O)N1c2ccccc2Sc2ccccc21`, the solubility (kinetic) was over 51.2 µg/mL.
As to `CCc1ccccc1NC(=S)N(Cc1cccs1)C1CCCC1`, the kinetic solubility turned out to be 13.9 µg/mL (≈ 40.3 µM).
Turning to `O=C(COC(=O)/C=C/c1ccc(F)cc1)Nc1ccc(S(=O)(=O)N2CCOCC2)cc1`, the kinetic solubility was determined as 6.1 µg/mL (≈ 13.6 µM).

For the origin of these results see PubChem BioAssay AID1996.
